The target in this assay is T1, PRKCN (PKD3) (Homo sapiens, UniProt O94806).
T1 construct: purchased Thermo Fisher Scientific (Life Technologies) SelectScreen
Description: SelectScreen Z'LYTE. It counts as biochemical. The method in brief: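 Percent values come from Thermo SelectScreen profiling of NU5455, combining activity and binding assays. CSF1R was run in Z'LYTE format at Km app ATP, and CAMK1 in Adapta format with ATP listed at 10.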

As a reminder, the inhibition is how much of the control response was suppressed. High values mean a strong effect, low ones a weak effect.

T1 sequence (O94806 whole entry): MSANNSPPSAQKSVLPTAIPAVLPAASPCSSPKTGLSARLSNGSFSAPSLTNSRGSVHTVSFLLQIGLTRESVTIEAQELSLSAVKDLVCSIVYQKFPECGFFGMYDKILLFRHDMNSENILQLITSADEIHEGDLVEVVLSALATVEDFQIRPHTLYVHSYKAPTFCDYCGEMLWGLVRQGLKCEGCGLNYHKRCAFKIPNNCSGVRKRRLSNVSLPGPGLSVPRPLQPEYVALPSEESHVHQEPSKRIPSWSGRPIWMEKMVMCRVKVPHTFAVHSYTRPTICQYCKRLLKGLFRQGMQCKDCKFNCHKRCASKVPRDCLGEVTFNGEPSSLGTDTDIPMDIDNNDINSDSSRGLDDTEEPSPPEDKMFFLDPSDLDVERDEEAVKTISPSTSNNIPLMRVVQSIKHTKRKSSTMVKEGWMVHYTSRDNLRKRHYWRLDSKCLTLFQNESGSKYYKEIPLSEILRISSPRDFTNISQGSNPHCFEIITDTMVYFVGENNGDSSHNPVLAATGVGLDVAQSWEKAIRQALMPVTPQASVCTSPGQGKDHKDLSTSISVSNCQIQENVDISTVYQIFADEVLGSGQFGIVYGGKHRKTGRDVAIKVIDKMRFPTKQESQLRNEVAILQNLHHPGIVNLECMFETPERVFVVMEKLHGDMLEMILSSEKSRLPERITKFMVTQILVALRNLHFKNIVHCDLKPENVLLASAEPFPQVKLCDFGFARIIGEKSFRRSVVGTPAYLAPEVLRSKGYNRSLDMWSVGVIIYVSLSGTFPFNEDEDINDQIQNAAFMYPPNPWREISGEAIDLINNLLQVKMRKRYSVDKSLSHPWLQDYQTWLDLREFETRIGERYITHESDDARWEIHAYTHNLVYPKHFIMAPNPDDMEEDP

Consider `CN(C(=O)CN1CCOCC1)c1ccc2sc3c(-c4cccc5c(=O)cc(N6CC7CCC(C6)O7)oc45)cccc3c2c1` [NU5455], for which testing at 1 µM gave an inhibition of 10.7%.

(Values after publication PMC6934184, “Selective DNA-PKcs inhibition extends the therapeutic index of localized radiotherapy and chemotherapy” (The Journal of Clinical Investigation, 2019).)
